Tests used:
[1] = Metabolic stability in rat hepatocytes assessed as parent compound remaining after 60 mins; assay type: ADME, cell-based, Hepatocyte; conditions: read-out: Stability
[2] = Metabolic stability in simulated intestinal fluid assessed as compound remaining after 60 mins; assay type: ADME; conditions: read-out: Stability
[3] = Transrepression of RORgammat in cytostim stimulated human whole blood assessed as suppression of IL-17 secretion incubated for 24 hrs; assay type: tissue-based
HepG2 = assay: Cytotoxicity against human HepG2 cells
[4] = molecular target: T1, Nuclear receptor ROR-alpha (Homo sapiens, UniProt P35398); assay: Inhibition of GAL4-DBD fused RORalpha LBD (unknown origin) expressed in HEK293T cells; assay type: cell-based
T1 sequence (P35398 whole entry): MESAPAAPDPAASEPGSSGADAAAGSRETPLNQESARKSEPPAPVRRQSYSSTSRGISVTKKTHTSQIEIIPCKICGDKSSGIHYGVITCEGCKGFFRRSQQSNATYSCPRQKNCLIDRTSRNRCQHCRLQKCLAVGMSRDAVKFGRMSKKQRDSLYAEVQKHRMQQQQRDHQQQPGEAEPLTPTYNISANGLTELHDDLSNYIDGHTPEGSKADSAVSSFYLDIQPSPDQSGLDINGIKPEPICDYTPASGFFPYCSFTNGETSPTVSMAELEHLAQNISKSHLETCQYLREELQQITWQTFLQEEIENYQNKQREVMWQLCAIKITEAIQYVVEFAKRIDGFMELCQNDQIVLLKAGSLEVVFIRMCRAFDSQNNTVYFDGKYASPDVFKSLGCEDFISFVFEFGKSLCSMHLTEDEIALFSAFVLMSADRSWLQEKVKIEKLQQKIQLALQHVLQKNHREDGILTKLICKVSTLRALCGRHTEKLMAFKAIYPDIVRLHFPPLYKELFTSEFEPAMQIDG

[5] = Metabolic stability in human hepatocytes assessed as parent compound remaining after 60 mins; assay type: ADME, cell-based, Hepatocyte; conditions: read-out: Stability
[6] = Metabolic stability in simulated intestinal fluid assessed as compound remaining after 2 hrs; assay type: ADME; conditions: read-out: Stability
[7] = molecular target: T2, Nuclear receptor ROR-gamma (Mus musculus, UniProt P51450); assay: Inverse agonist activity at RORgammat in mouse splenocytes derived naive T cells assessed as suppression of T cell differentiation to Th17 cells by measuring IL-17 secretion in presence of […]/anti-IFNgamma/TGFbeta/IL-6 for 6 days by ELISA; assay type: cell-based
T2 sequence (P51450 whole entry): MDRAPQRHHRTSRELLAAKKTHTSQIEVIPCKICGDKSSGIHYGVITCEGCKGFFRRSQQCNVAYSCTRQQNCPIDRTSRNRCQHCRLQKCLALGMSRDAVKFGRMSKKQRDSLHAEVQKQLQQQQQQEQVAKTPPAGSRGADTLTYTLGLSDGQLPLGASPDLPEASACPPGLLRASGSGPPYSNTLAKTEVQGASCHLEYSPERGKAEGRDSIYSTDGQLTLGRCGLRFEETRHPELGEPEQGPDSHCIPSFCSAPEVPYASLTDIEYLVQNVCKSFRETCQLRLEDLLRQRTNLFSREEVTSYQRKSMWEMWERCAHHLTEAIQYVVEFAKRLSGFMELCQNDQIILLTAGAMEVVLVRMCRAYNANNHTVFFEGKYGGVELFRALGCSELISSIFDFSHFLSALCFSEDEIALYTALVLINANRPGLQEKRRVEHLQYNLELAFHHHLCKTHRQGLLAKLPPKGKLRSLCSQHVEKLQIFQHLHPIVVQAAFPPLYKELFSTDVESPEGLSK

[8] = Metabolic stability in mouse hepatocytes assessed as parent compound remaining after 60 mins; assay type: ADME, cell-based, Hepatocyte; conditions: read-out: Stability
[9] = Clearance in mouse at 3 mg/kg, iv; assay type: ADME, organism-based; conditions: in vivo
[10] = AUC in mouse liver at 10 mg/kg, po; assay type: ADME, organism-based
[11] = AUC in mouse skin at 10 mg/kg, po; assay type: ADME, organism-based, Zone of skin
[12] = Plasma protein binding in dog; assay type: ADME, Canis lupus familiaris; conditions: read-out: PPB
[13] = AUC in mouse brain at 10 mg/kg, po; assay type: ADME, organism-based
[14] = Plasma protein binding in rat; assay type: ADME; conditions: read-out: PPB
[15] = Oral bioavailability in mouse at 10 mg/kg; assay type: ADME, organism-based; conditions: in vivo

For `O=C(O)c1ccc(-n2cc(C(=O)c3c(Cl)cccc3Cl)c3cccc(F)c32)cc1`, the remaining at 1 h [1] was 57%, the remaining at 1 h [2] was 100% and the IC50 [3] was 0.49 µM. The IC50 (HepG2) was greater than 50 µM, the IC50 [4] was greater than 10 µM and the remaining at 1 h [5] was 59%. For the same molecule, the remaining at 2 h [6] was 99%, the IC50 [7] was 0.026 µM and the remaining at 1 h [8] was 80%. The clearance [9] was 23.4 mL/min/kg, the AUC [10] was 400 µM·h and the AUC [11] was 11 µM·h. For the same molecule, the fraction unbound [12] was 0.01, the AUC [13] was 0.29 µM·h and the fraction unbound [14] was 0.01. For the same molecule, the bioavailability [15] was 72%.

Source: ChEMBL document CHEMBL4346735, “Discovery and pharmacological evaluation of indole derivatives as potent and selective RORγt inverse agonist for multiple autoimmune conditions” (Bioorg Med Chem Lett, 2019)
